Data reported in patent publication US11248995B2, “Hydrogel encapsulation of living organisms for long-term microscopy” (priority 2017, dated 2022).
Structures can show the parent of a compound that is named as a salt.

Key:
C. elegans [1] = test: Quantification of movement of hydrogel-embedded animals; format: in vivo
Description: Young adult QW1217 worms with pan-neuronal expression of nuclear-localized mCherry were embedded in 10% and 20% PEG hydrogels (3 μL with 100 μm spacer, 0.1% I2959, 20 s exposure using a 312 nm UV source). Worms received either no pretreatment, exposure to hypoosmotic (diH2O, 0 mOsm) or hyperosmotic buffers (0.5 M glycerol in diH2O, 500 mOsm or 1.5×S-Basal, 420 mOsm) for 10 min, or cooling in a −20° C. freezer or in contact with ice for 1-3 min prior to crosslinking. PEG hydrogel solutions were prepared in diH2O or S-Basal buffer, and some contained the paralytic reagents 25 mM sodium azide (Massie et al., 2003) or 1 mM tetramisole hydrochloride (Sigma) (Larsch et al., 2013). Other hydrogel solutions were prepared in 500 mM glycerol or 1.5×S-Basal hyperosmotic buffers. After crosslinking, all hydrogels were submerged in an aqueous solution of either S-Basal, diH20, sodium azide (25 mM) or tetramisole (1 mM) for imaging. Videos were captured with a Hamamatsu Orca-Flash 4.0 camera at 1 frame/sec for 3 min on a Zeiss AxioObserver inverted epifluorescence microscope with a 20×/0.5 NA objective.
Animal movement was analysed by comparing frame-to-frame image differences. Movement index is described using the equation M.I.=ΔIROI/IROI−IBG, where ΔIROI represents the difference in pixel intensity between consecutive frames, averaged across a region of interest (ROI), IROI represents the average intensity of the ROI, and IBG represents the average intensity of a Background region. […] First, the absolute value differences between each pair of consecutive frame averaged pixel intensities were calculated. Next, the difference image stack was smoothed (average of its 3×3 neighborhood). To reduce the contribution of pixel noise, a value of 10 (corresponding to average pixel noise) was subtracted uniformly from each frame and negative values were set to 0. Regions of Interest (ROIs) were selected over the head (nerve ring) and ventral cord and a background region (BG). The movement index was calculated as […], where ΔIROI is the mean of difference images across the ROI, and ΔIROI and IBG, are the mean intensity of the ROI and background regions for the first frame, respectively. Here, identical sequential frames would have a M.I. of zero, whereas images that have changes in position, rotation, focus, or intensity have increasing M.I. values.
Movement in the image plane was quantified by tracking cell nucleus position over 3 minutes. Individual neurons were tracked using NeuroTracker (Larsch et al., 2013) and centroid positions were used to determine the range of axial movement by the animal.

[2] = test system: AWA chemosensory neuron calcium responses; test: Automated small-molecule screening of optogenetically-evoked calcium activity suppressors (LOPAC library); format: in vivo, C. elegans; details: 10 μM, 1% DMSO, about 18 hours exposure; beyond mean ± 3 standard deviations
Description: For all well plate experiments, equal parts of 20% PEGDA (0.1% Irgacure) was added to a synchronized animal population in M9, resulting in ˜5 an/μL, 10% PEGDA, 0.05% Irgacure, and 0.5×M9. […] Both procedures used repeated mixing (4-5×) to maintain an even animal suspension during transfer. The animal-containing multiwell plate was transiently cooled for 10 min at −20° C. to settle animals at the bottom of the well, then immediately exposed to 308 nm UV light to photo-crosslink and embed the animals. Single wells can also be prepared by standard picking and transfer of animals to a final 10% gel solution (using PCR tubes), depending on experimental design or desired throughput.
Aliquoted LOPAC drug library plates were received from the UMMS small-molecule screening facility as 16 individual 96-well plates containing 3 nmol of compound per well (3 μL of 1 mM in 100% DMSO), stored at −80° C. until use. […]
A suite of custom ImageJ macros was developed for automated neuron selection and trace recording (aNT), or to manually select neurons (neuronPos) and then record calcium intensity in each well across all wells and cycles automatically (NT). […] Local background subtracted fluorescence (F) was calculated as F=(FR−Fbg).

AWA sensory neuron pair = test: Microfluidic chemical pulse stimulation of hydrogel-embedded C. elegans, GCaMP light sheet imaging; format: in vivo; details: 5-s and 10-s pulses
From the text: Wild-type C. elegans expressing GCaMP in the AWA sensory neuron pair were encapsulated in a hydrogel disk above a 100 μm wide microfluidic channel. External tubing connections and valves delivered 1, 5, or 10 second long pulses of chemical flow beneath the hydrogel disk. Small molecule chemicals (MW<500 Da) diffuse rapidly through the hydrogel, typically in under 1 second, to reach the encapsulated organism(s).

AWA activity = test: Nemadipine-A treatment of multi-well plate embedded animals, optogenetically-evoked calcium responses; format: in vivo, C. elegans; details: 10, 50, 100 uM vs 1% DMSO control, stimulated every 10 min for 24 hours; dose dependence
Description: A small volume (10 uL) of PEG hydrogel solution (10% with 0.5×S. basal) with photoinitiator was pipetted into each PCR tube (one tube per one well). Young adult animals (CX16573) were transferred into the hydrogel solution by worm pick (up to 40 or more). The hydrogel and worm solution was transferred from one PCR tube to the bottom of one well of a 384 well plate, and repeated for as many PCR tubes prepared. The 384 well plate was placed into −20° C. freezer for no more than 10 min, then immediately placed on the 308 nm light source to crosslinking for no more than 45 s. Then, a small volume (60 uL) of 1 mM ATR in water was pipetted into crosslinked wells, covered, placed in the dark, and allowed to incubate for at least 1 hr, or up to 24 hrs. Animals were then imaged on a custom designed microscope and optical configuration allowing for both red-light excitation and blue-light excitation sent through the objective, all set by the initial experimental settings. Red light pulse durations, well position, cycle number and cycle delay conditions were set by a custom MicroManager script, and executed.
After crosslinking and before all-trans retinal (ATR) transfer to each well, solutions of 10 μM, 50 μM, and 100 μM nemadipine-A to a final concentration of 1% DMSO in 1 mM ATR were prepared. A control well containing only 1% DMSO in 1 mM ATR was prepared as well. […]

C. elegans [3] = details: 25 mM sodium azide, agarose pad
Description: For hydrogel encapsulation, 5 μL of a 10% PEG hydrogel with 0.1% I2959 containing late L1/L2 stage animals was placed on a fluorinated glass slide with 50 μm thick tape spacers, polymerized with 312 nm UV light, and imaged on an upright Zeiss Axioskop microscope with a 100×/1.4 NA objective using DIC optics. Images were captured every hour for 12 hours without movement of the sample. For comparison, animals were mounted onto conventional agarose pads with chemical or physical restraint. […] Animals were picked into this droplet and a cover slip was placed on top before imaging. Alternatively, a 0.25-0.5 μL drop of polystyrene nanobeads (100 nm, Polysciences, Inc.) was placed on a 10% agarose pad prior to adding animals, a cover slip, and imaging.

[4] = hyper-osmotic solution (0.5 M glycerol 500 mOsm or 1.5x S-Basal 420 mOsm) 10 min prior to or during crosslinking, imaged in S-Basal buffer

## OCC(O)CO [glycerol]
C. elegans [1]; [4]
  Movement index (M.I.): 0.02±0.007
  Range of movement over 3 min: 8±7 μm

## ivermectin
[2]
  Screen result: relative peak ΔF/F0 calcium response, fold change cycle 4 to 1: positive hits

## CC(=O)C(C)=O [diacetyl]
AWA sensory neuron pair
  AWA neuron response (relative integrated fluorescence) to odor stimulation: stimulated one of the two neurons

## CCOC(=O)C1=C(C)NC(C)=C(C(=O)OCC)C1c1c(F)c(F)c(F)c(F)c1F [Nemadipine-A]
AWA activity
  Peak calcium response (change in fluorescence) of AWA: reduction in peak response

## [N-]=[N+]=[N-] [sodium azide]
C. elegans [3]
  Cell death in paralyzed animals: characteristics of necrotic cell death after 6 hours
C. elegans [1]; 20% PEG hydrogels, paralytic vs no paralytic, P<0.0001
  Reduction of movement index: 5 fold
C. elegans [1]; C. elegans embedded in 20% PEG hydrogels, mean over 3 min, 25 mM sodium azide or 1 mM tetramisole during gelation or transiently after encapsulation, hydrogel alone without paralytic
  Movement index (M.I.): 0.07±0.01
C. elegans [1]; C. elegans embedded in 20% PEG hydrogels, 25 mM sodium azide or 1 mM tetramisole, hydrogel alone without paralytic
  Movement (displacement range) over 3 minutes: 18 μm

## c1ccc(C2CN3CCSC3=N2)cc1 (stereo not drawn) [tetramisole, tetramisole hydrochloride]
C. elegans [1]; in vivo
  Movement (displacement range) over 3 minutes: 19 μm
  Movement index (M.I.): 0.06±0.02
  Reduction of movement index: 5 fold
